Experimental data from ChEMBL document CHEMBL4507305, “Data for DCP probe TP-024” (2021).

Assays:
[1] = tested on: Tyrosine-protein kinase ABL1 (Homo sapiens), P00519 [F317I]; conditions: Compound concentration 1000.0 nM
[2] = tested on: Tyrosine-protein kinase ABL1 (Homo sapiens), P00519 [H396P]; conditions: Compound concentration 1000.0 nM
[3] = biological target: Tyrosine-protein kinase ABL2 (Homo sapiens) (UniProt P42684); conditions: Compound concentration 1000.0 nM
[4] = biological target: Activin receptor type-2A (Homo sapiens) (UniProt P27037); conditions: Compound concentration 1000.0 nM
[5] = biological target: Mitogen-activated protein kinase kinase kinase 6 (Homo sapiens) (UniProt O95382); conditions: Compound concentration 1000.0 nM
[6] = biological target: Tyrosine-protein kinase receptor UFO (Homo sapiens) (UniProt P30530); conditions: Compound concentration 1000.0 nM
[7] = biological target: Cyclin-dependent kinase 19 (Homo sapiens) (UniProt Q9BWU1); conditions: Compound concentration 1000.0 nM
[8] = biological target: Cyclin-dependent kinase 8 (Homo sapiens) (UniProt P49336); conditions: Compound concentration 1000.0 nM
[9] = biological target: Cyclin-dependent kinase 9 (Homo sapiens) (UniProt P50750); conditions: Compound concentration 1000.0 nM
[10] = biological target: Serine/threonine-protein kinase Chk2 (Homo sapiens) (UniProt O96017); conditions: Compound concentration 1000.0 nM
[11] = biological target: Casein kinase I isoform alpha (Homo sapiens) (UniProt P48729); conditions: Compound concentration 1000.0 nM
[12] = biological target: Death-associated protein kinase 1 (Homo sapiens) (UniProt P53355); conditions: Compound concentration 1000.0 nM
[13] = tested on: Epidermal growth factor receptor (Homo sapiens), P00533 [UNDEFINED MUTATION]; conditions: Compound concentration 1000.0 nM
[14] = biological target: Receptor tyrosine-protein kinase erbB-2 (Homo sapiens) (UniProt P04626); conditions: Compound concentration 1000.0 nM
[15] = biological target: Mitogen-activated protein kinase 3 (Homo sapiens) (UniProt P27361); conditions: Compound concentration 1000.0 nM
[16] = biological target: Tyrosine-protein kinase Fgr (Homo sapiens) (UniProt P09769); conditions: Compound concentration 1000.0 nM
[17] = tested on: Receptor-type tyrosine-protein kinase FLT3 (Homo sapiens), P36888 [D835Y]; conditions: Compound concentration 1000.0 nM
[18] = tested on: Receptor-type tyrosine-protein kinase FLT3 (Homo sapiens), P36888 [N841I]; conditions: Compound concentration 1000.0 nM
[19] = tested on: eIF-2-alpha kinase GCN2 (Homo sapiens), Q9P2K8 [S808G]; conditions: Compound concentration 1000.0 nM
[20] = biological target: Glycogen synthase kinase-3 beta (Homo sapiens) (UniProt P49841); conditions: Compound concentration 1000.0 nM
[21] = biological target: Interleukin-1 receptor-associated kinase 4 (Homo sapiens) (UniProt Q9NWZ3); conditions: Compound concentration 1000.0 nM
[22] = tested on: Mast/stem cell growth factor receptor Kit (Homo sapiens), P10721 [D816V]; conditions: Compound concentration 1000.0 nM
[23] = tested on: Mast/stem cell growth factor receptor Kit (Homo sapiens), P10721 [L576P]; conditions: Compound concentration 1000.0 nM
[24] = biological target: Leucine-rich repeat serine/threonine-protein kinase 2 (Homo sapiens) (UniProt Q5S007); conditions: Compound concentration 1000.0 nM
[25] = biological target: Mitogen-activated protein kinase kinase kinase 1 (Homo sapiens) (UniProt Q13233); conditions: Compound concentration 1000.0 nM
[26] = biological target: MAP kinase-activated protein kinase 2 (Homo sapiens) (UniProt P49137); conditions: Compound concentration 1000.0 nM
[27] = biological target: Maternal embryonic leucine zipper kinase (Homo sapiens) (UniProt Q14680); conditions: Compound concentration 1000.0 nM
[28] = biological target: Hepatocyte growth factor receptor (Homo sapiens) (UniProt P08581); conditions: Compound concentration 1000.0 nM
[29] = biological target: MAP kinase-interacting serine/threonine-protein kinase 2 (Homo sapiens) (UniProt Q9HBH9); conditions: Compound concentration 1000.0 nM
[30] = biological target: Serine/threonine-protein kinase 3 (Homo sapiens) (UniProt Q13188); conditions: Compound concentration 1000.0 nM
[31] = biological target: Myosin-IIIb (Homo sapiens) (UniProt Q8WXR4); conditions: Compound concentration 1000.0 nM
[32] = biological target: Mitogen-activated protein kinase kinase kinase 14 (Homo sapiens) (UniProt Q99558); conditions: Compound concentration 1000.0 nM
[33] = biological target: Cyclin-dependent kinase 16 (Homo sapiens) (UniProt Q00536); conditions: Compound concentration 1000.0 nM
[34] = biological target: Cyclin-dependent kinase 2 homolog (Plasmodium falciparum (isolate 3D7)) (UniProt P61075); conditions: Compound concentration 1000.0 nM
[35] = biological target: Phosphatidylinositol 4-phosphate 5-kinase type-1 gamma (Homo sapiens) (UniProt O60331); conditions: Compound concentration 1000.0 nM
[36] = biological target: Phosphatidylinositol 5-phosphate 4-kinase type-2 beta (Homo sapiens) (UniProt P78356); conditions: Compound concentration 1000.0 nM
[37] = biological target: Serine/threonine-protein kinase N2 (Homo sapiens) (UniProt Q16513); conditions: Compound concentration 1000.0 nM
[38] = biological target: Serine/threonine-protein kinase PLK3 (Homo sapiens) (UniProt Q9H4B4); conditions: Compound concentration 1000.0 nM
[39] = biological target: Serine/threonine-protein kinase PRP4 homolog (Homo sapiens) (UniProt Q13523); conditions: Compound concentration 1000.0 nM
[40] = biological target: Ribosomal protein S6 kinase alpha-3 (Homo sapiens) (UniProt P51812); conditions: Compound concentration 1000.0 nM
[41] = biological target: Serine/threonine-protein kinase tousled-like 2 (Homo sapiens) (UniProt Q86UE8); conditions: Compound concentration 1000.0 nM
[42] = biological target: Serine/threonine-protein kinase WNK3 (Homo sapiens) (UniProt Q9BYP7); conditions: Compound concentration 1000.0 nM
[43] = biological target: D(1B) dopamine receptor (Homo sapiens) (UniProt P21918); conditions: Compound concentration 10.0 uM
[44] = biological target: Muscarinic acetylcholine receptor M2 (Homo sapiens) (UniProt P08172); conditions: Compound concentration 10.0 uM
[45] = organism: Rattus norvegicus; conditions: Compound concentration 10.0 uM

Mitogen-activated protein kinase kinase kinase 6 (Homo sapiens), sequence (O95382 whole entry): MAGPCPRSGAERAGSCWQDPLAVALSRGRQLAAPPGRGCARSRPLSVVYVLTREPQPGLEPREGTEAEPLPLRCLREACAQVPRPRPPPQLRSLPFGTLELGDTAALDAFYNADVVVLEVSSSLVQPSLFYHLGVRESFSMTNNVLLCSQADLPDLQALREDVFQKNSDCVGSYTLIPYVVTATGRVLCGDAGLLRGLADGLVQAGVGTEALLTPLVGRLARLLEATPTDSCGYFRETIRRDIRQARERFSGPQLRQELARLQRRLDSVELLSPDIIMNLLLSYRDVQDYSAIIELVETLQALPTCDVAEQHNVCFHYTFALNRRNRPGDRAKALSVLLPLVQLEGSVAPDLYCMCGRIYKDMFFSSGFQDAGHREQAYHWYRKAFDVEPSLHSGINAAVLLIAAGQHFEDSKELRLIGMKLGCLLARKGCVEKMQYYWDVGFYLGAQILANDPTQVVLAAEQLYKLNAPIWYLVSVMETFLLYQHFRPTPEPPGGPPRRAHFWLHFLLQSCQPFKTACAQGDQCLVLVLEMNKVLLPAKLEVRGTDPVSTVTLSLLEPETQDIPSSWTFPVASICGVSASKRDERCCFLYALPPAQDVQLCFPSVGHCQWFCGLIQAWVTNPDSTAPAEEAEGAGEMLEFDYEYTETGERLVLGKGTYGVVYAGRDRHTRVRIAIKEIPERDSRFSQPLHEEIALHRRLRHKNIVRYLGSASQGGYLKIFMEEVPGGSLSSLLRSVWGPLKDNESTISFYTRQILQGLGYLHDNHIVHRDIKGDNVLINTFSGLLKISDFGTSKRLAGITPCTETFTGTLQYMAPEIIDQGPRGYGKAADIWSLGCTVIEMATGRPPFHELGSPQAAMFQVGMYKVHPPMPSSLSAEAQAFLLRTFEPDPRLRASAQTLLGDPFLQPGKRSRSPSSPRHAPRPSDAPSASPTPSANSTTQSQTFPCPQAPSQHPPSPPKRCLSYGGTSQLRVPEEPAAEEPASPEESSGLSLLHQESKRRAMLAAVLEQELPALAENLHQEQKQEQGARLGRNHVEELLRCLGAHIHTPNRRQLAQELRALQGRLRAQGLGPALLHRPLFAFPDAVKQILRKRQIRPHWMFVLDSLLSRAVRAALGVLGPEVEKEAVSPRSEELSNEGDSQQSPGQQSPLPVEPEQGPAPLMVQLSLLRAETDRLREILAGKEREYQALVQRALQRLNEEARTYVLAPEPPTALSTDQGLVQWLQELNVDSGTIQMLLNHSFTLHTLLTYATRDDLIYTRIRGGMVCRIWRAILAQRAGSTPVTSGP
Serine/threonine-protein kinase PRP4 homolog (Homo sapiens), sequence (Q13523 whole entry): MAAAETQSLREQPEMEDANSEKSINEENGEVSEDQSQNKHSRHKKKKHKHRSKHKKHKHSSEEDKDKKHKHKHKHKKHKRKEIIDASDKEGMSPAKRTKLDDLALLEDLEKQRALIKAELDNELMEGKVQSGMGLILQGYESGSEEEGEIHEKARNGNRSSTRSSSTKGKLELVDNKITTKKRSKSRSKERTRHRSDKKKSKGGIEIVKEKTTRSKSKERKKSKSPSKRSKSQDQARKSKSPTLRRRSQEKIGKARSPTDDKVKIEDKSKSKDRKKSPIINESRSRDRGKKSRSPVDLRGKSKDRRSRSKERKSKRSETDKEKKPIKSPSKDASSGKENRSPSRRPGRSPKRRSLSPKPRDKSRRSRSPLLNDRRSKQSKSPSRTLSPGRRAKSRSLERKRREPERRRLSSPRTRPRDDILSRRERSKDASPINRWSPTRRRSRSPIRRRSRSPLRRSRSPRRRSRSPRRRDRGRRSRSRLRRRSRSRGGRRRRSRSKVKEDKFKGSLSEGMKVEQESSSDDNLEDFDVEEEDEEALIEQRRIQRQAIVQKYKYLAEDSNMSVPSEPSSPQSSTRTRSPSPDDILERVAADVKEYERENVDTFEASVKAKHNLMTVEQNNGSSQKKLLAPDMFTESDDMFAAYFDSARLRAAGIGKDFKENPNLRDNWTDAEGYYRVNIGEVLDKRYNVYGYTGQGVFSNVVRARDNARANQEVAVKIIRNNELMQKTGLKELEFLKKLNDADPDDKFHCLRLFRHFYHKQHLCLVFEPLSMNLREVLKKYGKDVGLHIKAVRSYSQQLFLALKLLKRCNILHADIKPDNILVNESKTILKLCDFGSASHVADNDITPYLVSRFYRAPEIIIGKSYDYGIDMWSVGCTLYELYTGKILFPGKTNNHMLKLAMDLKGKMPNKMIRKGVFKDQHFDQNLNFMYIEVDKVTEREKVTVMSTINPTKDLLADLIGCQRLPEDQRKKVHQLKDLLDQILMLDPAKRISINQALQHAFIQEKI
Mitogen-activated protein kinase 3 (Homo sapiens), sequence (P27361 whole entry): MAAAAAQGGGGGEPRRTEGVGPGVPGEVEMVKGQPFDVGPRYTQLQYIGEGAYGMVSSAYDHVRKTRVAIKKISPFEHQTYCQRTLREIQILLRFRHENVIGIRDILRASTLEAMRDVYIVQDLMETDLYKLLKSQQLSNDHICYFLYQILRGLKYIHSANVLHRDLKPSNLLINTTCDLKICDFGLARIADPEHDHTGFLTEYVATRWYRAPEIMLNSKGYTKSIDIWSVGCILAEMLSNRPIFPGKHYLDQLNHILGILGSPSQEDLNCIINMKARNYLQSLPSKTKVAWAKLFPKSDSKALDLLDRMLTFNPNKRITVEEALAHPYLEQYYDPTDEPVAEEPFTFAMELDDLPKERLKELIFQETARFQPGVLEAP
eIF-2-alpha kinase GCN2 (Homo sapiens), Q9P2K8 [S808G], sequence (Q9P2K8 whole entry S808G): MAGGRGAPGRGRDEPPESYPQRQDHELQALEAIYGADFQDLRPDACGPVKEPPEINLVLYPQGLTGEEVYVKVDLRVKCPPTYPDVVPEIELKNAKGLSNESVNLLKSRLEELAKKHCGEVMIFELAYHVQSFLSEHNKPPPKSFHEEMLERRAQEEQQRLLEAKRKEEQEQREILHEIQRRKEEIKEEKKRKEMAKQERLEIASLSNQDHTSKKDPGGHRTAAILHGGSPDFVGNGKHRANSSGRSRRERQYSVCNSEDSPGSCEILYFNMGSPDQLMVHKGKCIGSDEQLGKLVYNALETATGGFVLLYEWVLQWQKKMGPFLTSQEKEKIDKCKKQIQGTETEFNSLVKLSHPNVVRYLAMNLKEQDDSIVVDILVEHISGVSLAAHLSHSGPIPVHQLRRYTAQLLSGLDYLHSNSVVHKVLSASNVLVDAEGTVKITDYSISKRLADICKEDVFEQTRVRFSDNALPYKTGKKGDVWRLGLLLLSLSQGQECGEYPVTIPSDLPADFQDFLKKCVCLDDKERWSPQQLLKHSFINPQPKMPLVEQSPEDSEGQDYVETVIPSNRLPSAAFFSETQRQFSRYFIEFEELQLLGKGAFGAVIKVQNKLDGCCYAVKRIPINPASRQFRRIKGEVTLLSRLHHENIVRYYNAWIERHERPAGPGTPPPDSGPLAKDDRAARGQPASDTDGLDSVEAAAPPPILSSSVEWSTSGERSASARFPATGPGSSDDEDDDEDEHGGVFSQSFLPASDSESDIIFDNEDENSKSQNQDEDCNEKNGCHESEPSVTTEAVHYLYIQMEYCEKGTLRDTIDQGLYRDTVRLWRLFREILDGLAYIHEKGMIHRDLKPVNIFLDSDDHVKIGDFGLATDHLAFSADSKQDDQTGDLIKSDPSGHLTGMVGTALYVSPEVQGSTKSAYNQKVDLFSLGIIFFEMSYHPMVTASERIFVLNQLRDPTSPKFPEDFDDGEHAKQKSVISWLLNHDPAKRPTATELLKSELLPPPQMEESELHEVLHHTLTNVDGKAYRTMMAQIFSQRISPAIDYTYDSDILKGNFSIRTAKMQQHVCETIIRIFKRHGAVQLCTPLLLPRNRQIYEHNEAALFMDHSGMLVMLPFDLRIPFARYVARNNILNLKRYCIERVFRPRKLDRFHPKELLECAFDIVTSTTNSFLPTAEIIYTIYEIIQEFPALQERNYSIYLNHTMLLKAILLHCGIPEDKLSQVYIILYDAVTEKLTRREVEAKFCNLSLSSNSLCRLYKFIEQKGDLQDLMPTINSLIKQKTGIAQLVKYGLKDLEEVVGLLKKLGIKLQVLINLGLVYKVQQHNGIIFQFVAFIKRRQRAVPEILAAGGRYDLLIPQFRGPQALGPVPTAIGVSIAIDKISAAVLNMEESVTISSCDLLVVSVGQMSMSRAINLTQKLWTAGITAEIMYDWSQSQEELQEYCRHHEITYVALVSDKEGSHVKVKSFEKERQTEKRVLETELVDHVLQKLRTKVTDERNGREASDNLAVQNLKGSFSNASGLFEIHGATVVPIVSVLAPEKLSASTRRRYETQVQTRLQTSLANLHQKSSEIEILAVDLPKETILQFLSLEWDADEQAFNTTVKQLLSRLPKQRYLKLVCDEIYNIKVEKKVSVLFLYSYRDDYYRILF
Serine/threonine-protein kinase 3 (Homo sapiens), sequence (Q13188 whole entry): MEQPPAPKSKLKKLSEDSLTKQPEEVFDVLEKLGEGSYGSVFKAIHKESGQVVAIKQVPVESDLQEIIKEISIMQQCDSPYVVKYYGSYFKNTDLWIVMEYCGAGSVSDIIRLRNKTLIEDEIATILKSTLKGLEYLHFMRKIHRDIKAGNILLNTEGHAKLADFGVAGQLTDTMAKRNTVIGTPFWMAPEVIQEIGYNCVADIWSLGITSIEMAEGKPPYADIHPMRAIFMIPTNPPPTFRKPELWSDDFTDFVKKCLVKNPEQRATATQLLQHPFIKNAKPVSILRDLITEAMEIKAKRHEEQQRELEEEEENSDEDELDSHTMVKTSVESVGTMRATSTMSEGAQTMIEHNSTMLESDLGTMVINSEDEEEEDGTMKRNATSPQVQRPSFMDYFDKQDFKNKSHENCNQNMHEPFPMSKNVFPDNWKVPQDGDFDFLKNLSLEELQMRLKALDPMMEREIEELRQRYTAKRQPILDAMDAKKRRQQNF
Cyclin-dependent kinase 2 homolog (Plasmodium falciparum (isolate 3D7)), sequence (P61075 whole entry): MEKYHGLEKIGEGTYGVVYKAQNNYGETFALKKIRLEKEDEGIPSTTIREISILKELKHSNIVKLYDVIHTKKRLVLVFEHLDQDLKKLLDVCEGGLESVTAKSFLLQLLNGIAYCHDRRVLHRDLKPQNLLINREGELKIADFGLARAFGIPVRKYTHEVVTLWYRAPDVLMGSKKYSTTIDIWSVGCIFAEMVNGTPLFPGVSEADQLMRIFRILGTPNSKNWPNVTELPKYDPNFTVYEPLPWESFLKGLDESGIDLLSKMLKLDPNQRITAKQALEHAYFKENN

Cc1cc(-n2nc(Cc3cc(F)cc(C(F)(F)F)c3)nc2C)ccc1C(N)=O [TP-024]
inactive: residual activity [1] 100% | residual activity [2] 98% | residual activity [3] 100% | residual activity [4] 100% | residual activity [5] 100% | residual activity [6] 99% | residual activity [7] 88% | residual activity [8] 97% | residual activity [9] 100% | residual activity [10] 100% | residual activity [11] 100% | residual activity [12] 99% | residual activity [13] 100% | residual activity [14] 99% | residual activity [15] 100% | residual activity [16] 94% | residual activity [17] 100% | residual activity [18] 99% | residual activity [19] 100% | residual activity [20] 98% | residual activity [21] 100% | residual activity [22] 100% | residual activity [23] 52% | residual activity [24] 99% | residual activity [25] 100% | residual activity [26] 100% | residual activity [27] 100% | residual activity [28] 81% | residual activity [29] 100% | residual activity [30] 100% | residual activity [31] 100% | residual activity [32] 100% | residual activity [33] 100% | residual activity [34] 100% | residual activity [35] 66% | residual activity [36] 100% | residual activity [37] 100% | residual activity [38] 100% | residual activity [39] 54% | residual activity [40] 100% | residual activity [41] 100% | residual activity [42] 100% | inhibition [43] 14.3% | inhibition [44] 5.69% | inhibition [45] 7.23%

Cc1nc(Cc2cccc(C(F)(F)F)c2)sc1-c1ccc(C(N)=O)nc1 [TP-024n]
inactive: residual activity [1] 100% | residual activity [2] 96% | residual activity [3] 100% | residual activity [4] 85% | residual activity [5] 99% | residual activity [6] 100% | residual activity [7] 98% | residual activity [8] 100% | residual activity [9] 100% | residual activity [10] 100% | residual activity [11] 99% | residual activity [12] 100% | residual activity [13] 100% | residual activity [14] 100% | residual activity [15] 96% | residual activity [16] 100% | residual activity [17] 92% | residual activity [18] 86% | residual activity [19] 100% | residual activity [20] 100% | residual activity [21] 100% | residual activity [22] 81% | residual activity [23] 89% | residual activity [24] 92% | residual activity [25] 100% | residual activity [26] 100% | residual activity [27] 100% | residual activity [28] 63% | residual activity [29] 100% | residual activity [30] 97% | residual activity [31] 100% | residual activity [32] 100% | residual activity [33] 100% | residual activity [34] 100% | residual activity [35] 84% | residual activity [36] 88% | residual activity [37] 91% | residual activity [38] 94% | residual activity [39] 70% | residual activity [40] 99% | residual activity [41] 82% | residual activity [42] 61% | inhibition [43] 13.8% | inhibition [44] 12.8% | inhibition [45] 4.9%
